{
  "source": "paper PMC8333425",
  "about": "“Discovery of a dual Ras and ARF6 inhibitor from a GPCR endocytosis screen” (Nature Communications, 2021)",
  "experiment_in_all_cases": "Ras BRET sensor in cells overexpressing K-Ras mutants (Y32A, Y40A, Y32A/Y40A) and AT1R",
  "key": {"[1]": {"tested_on": "K-Ras Y32A, Y40A, Y32A/Y40A", "format": "cell-based, human", "details": "50 μM", "description": "(§1) Because Tyr32 and Tyr40, located on the switch I domain of Ras, are critical for stabilizing Rasarfin binding through interactions with both the chlorine and isopropyl moiety (Fig. 7a, c), we reasoned that substituting them for Ala residues would negatively impact Rasarfin’s inhibitory action on Ras. […] Because we wanted to assess the inhibitory action of Rasarfin over different Ras subtypes, we mutated the two tyrosine residues to an alanine in K-Ras (Y32A, Y40A, and Y32A/Y40A mutants) within the same Rasarfin binding site found in H-Ras (Lys^5-Thr^74). This domain and residues are perfectly conserved among the Ras family members[44],[45]. WT K-Ras and K-Ras mutants were overexpressed along with AT1R in cells and AngII-mediated activation of Ras was assessed using the Ras BRET sensor (Supplementary Fig. 11a).\n(§2) HEK293SL cells were seeded at a density of 7.5 × 10^5 cells per 100-mm dish and 24 h later, transiently transfected as such. For receptor internalization experiments, cells were transfected with 0.12 μg AT1R-RlucII, B2R-RlucII, or β2AR-RlucII and 0.48 μg of either rGFP-CAAX (to assess removal from the PM) or rGFP-FYVE (to assess accumulation in the endosomes). For β-arrestin recruitment assays, cells were transfected with 0.48 μg of receptor-YFP along with 0.12 μg of β-arrestin-RlucII. For β-arrestin/AP-2 binding experiments, cells were transfected with 1 μg Flag-AT1R, 1 μg β2-Adaptin-YFP, and 0.12 μg β-arrestin2-RlucII. For G protein activation, cells were transfected with 3 μg of sp-Flag-AT1R along with either 4.5 μg of the Gαq-polycistronic BRET sensor or 0.24 μg of the Gαi3-RlucII and 0.6 μg of GFP10-Gγ2 and Gβ1 sensors or 0.12 μg PKN-RBD-RlucII and 0.48 μg of rGFP-CAAX. For PKC activation, cells were transfected with 3 μg of sp-Flag-AT1R and 0.18 μg of the PKC sensor. For GTPase activation experiments, cells were transfected with 1 μg Flag-AT1R, 0.48 μg of rGFP-CAAX, and either 0.12 μg of GGA3-PBD-RlucII, PAK-CRIB-RlucII or Raf-RBD-RlucII. For biosensor validation experiments, cells were additionally transfected with 500 ng Flag-K-Ras-WT, Flag-K-Ras-G12V, Flag-K-Ras-SOS-CAAX, HA-ARF6-WT, HA-ARF6-T27N, Myc-Rac1-WT, Myc-Rac1-Q61L or Myc-Rac1-T17N. For PI3K/Akt activation experiments, cells were transfected with 0.48 μg of rGFP-CAAX and 0.12 μg of Akt (PH)-RlucII. After 18 h of transfection, the media was replaced and cells were divided for subsequent experiments. Cells were detached and seeded onto poly-L-ornithine-coated 96-well flat white bottom plates (BrandTech Scientific) at a density of 2.5 × 10^4 cells per well in media. The next day, cells were washed once with Tyrode’s buffer (140 mM NaCl, 2.7 mM KCl, 1 mM CaCl2, 12 mM NaHCO3, 5.6 mM D-glucose, 0.5 mM MgCl2, 0.37 mM NaH2PO4, 25 mM HEPES, pH 7.4) and left in Tyrode’s buffer. For kinetics of β-arrestin recruitment or β-arrestin binding to receptor and AP-2 experiments, cells were serum starved for 30 min, pretreated with 21 (50 µM) or Barbadin (100 µM) for 30 min, stimulated with 100 nM AngII or 1 µM BK and BRET signals were monitored at indicated times using a Victor X Light plate reader (PerkinElmer). Coelenterazine H (final concentration of 5 µM) was added 3–5 min prior to BRET measurements. Filter set was 460/80 nm and 535/30 nm for detecting the RlucII Renilla luciferase (donor) and YFP (acceptor) light emissions, respectively. The BRET ratio was determined by calculating the ratio of the light emitted by YFP over the light emitted by the RlucII. For G protein activation, cells were serum starved, pretreated with compounds for 30 min, stimulated with 100 nM AngII for 2 min (Gαq, Gαi3, and Rho sensors) or 5 min (PKC sensor). For the kinetics of GTPase and PI3K/Akt activation, cells were serum starved, pretreated with 21 (50 µM) or Wortmannin (200 nM) for 30 min, stimulated with ligand (100 nM AngII or 100 ng/ml EGF) and BRET signals were monitored at indicated times. […]"}, "[2]": {"target": "T1, K-Ras Y32A, Y40A, Y32A/Y40A (Homo sapiens, UniProt P01116, Y40A)", "T1 construct": "expressed in transfected cells; host or cells: HEK293SL", "format": "cell-based", "details": "Rasarfin 50 μM, K-Ras Y40A", "description": "as §1, §2"}, "[3]": {"target": "T2, K-Ras Y32A, Y40A, Y32A/Y40A (Homo sapiens, UniProt P01116, Y32A/Y40A)", "T2 construct": "expressed in transfected cells; host or cells: HEK293SL", "format": "cell-based", "details": "Rasarfin 50 μM, K-Ras Y32A/Y40A, Bonferroni's multiple comparisons test", "description": "as §1, §2"}, "[4]": {"target": "T3, K-Ras Y32A, Y40A, Y32A/Y40A (Homo sapiens, UniProt P01116, Y32A)", "T3 construct": "expressed in transfected cells; host or cells: HEK293SL", "format": "cell-based", "details": "Rasarfin 50 μM, K-Ras Y32A", "description": "as §1, §2"}, "[5]": {"details": "Bonferroni's multiple comparisons test"}},
  "note": "Several values for one entry are separate records, joined by “and”; a condition that tells them apart may be missing. Equal values may be shown once.",
  "data": [
    {"smiles": "CC(C)C(=O)N1CCN(c2ccc(NC(=O)c3cc4ccccc4o3)cc2Cl)CC1", "note": "[Compound 21]", "values": [
      {"measurement": "AngII-mediated activation of K-Ras Y32A, Y40A, Y32A/Y40A mutants (Ras BRET sensor)", "setting": "[1]", "result": "only WT was significantly inhibited by Rasarfin"},
      {"measurement": "AngII-promoted BRET", "setting": "[2]", "result": "0.072 and 0.05667 and 0.08167 and 0.04433"},
      {"measurement": "AngII-promoted BRET, Mean Diff. DMSO - Rasarfin", "setting": "[2]; [5]", "result": 0.011},
      {"measurement": "AngII-promoted BRET, Mean Diff. DMSO - Rasarfin", "setting": "[3]", "result": 0.004167},
      {"measurement": "AngII-promoted BRET", "setting": "[4]", "result": "0.1037 and 0.088 and 0.0995 and 0.056"},
      {"measurement": "AngII-promoted BRET, Mean Diff. DMSO - Rasarfin", "setting": "[4]; [5]", "result": 0.006083}
    ]}
  ]
}
